The record followed here is patent publication US7786141B2 (Vertex Pharmaceuticals Incorporated, priority 2004, dated 2010).

Assay [1] concerns the target T1, M1 muscarinic receptor (Homo sapiens, UniProt P11229).
T1 construct: expressed in transfected cells; host or cells: CHO (M1-CHO)
T1 sequence (P11229 1-460): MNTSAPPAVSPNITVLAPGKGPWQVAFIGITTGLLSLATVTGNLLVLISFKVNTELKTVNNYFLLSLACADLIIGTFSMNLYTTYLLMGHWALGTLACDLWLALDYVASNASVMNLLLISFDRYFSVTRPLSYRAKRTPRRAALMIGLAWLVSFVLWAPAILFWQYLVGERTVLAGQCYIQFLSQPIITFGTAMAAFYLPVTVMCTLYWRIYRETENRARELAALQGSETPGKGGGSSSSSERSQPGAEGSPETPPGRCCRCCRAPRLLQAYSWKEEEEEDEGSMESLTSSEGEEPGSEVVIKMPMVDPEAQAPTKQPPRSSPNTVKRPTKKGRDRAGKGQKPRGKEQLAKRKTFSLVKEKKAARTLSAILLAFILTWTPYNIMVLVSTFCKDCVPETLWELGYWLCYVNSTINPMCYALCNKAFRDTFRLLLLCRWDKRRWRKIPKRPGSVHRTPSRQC
The assay is described as follows: Functional mobilization of intracellular calcium (FLIPR) in M1-CHO cells. The conditions noted are these: M1 receptor, calcium mobilization; for Emax: read-out: M1 Efficacy. In kind it is cell-based. The essentials: (§1)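 Steps: seed M1- or M4-CHO cells 18-24 hrs ahead; load calcium dye with 1 mM probenecid; add test compound (0.5% DMSO final), either alone for agonism or 15 min before EC80 carbachol for inhibition; record FLIPR fluorescence for 60 sec.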

Assay [2] concerns the target T2, M4 muscarinic receptor (Homo sapiens, UniProt P08173).
T2 construct: expressed in transfected cells; host or cells: CHO (M4-CHO)
T2 sequence (P08173 1-479): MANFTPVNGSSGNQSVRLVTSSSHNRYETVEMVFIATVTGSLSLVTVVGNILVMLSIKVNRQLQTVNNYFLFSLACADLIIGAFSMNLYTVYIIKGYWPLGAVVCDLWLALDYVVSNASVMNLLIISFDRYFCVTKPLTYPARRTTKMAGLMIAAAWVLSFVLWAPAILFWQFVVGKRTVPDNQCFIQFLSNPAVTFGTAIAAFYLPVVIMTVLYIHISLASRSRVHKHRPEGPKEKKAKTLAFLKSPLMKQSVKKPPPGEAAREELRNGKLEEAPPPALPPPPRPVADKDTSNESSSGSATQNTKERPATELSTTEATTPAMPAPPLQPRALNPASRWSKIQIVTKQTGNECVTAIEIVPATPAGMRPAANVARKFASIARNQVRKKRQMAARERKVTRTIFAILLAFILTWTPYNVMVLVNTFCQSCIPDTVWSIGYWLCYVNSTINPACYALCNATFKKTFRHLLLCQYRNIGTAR
Kind of assay: Functional mobilization of intracellular calcium (FLIPR) in M4-CHO cells. Format: cell-based. The conditions noted are these: M4 receptor, calcium mobilization; for Emax: read-out: M4 Efficacy. In a few lines:
as §1
Background: A change in cytosolic calcium serves as a functional read-out for many receptors and channels.

Molecules are shown by their SMILES.

On to `CCOC(=O)N1CCC(N2CCC3(CC2)CN(C(=O)c2ccccn2)c2ccc(F)cc23)CC1` [compound 331], for which, in assay [1], the “M1 Activity” value was “xx (activity was measured to be between 0.1 μM and 1.0 μM)”; the Emax was less than 65%. Besides, in assay [2], the “M4 Activity” value is recorded as “x (activity was measured to be greater than 1.0 μM)” and the Emax was less than 65%.

For the compound `CCOC(=O)N1C2CCC1CC(CN1CCC3(CC1)CNc1ccc(C)cc13)C2` (stereo not drawn) [compound 332], in assay [1], the “M1 Activity” value is on record as “x (activity was measured to be greater than 1.0 μM)” and the Emax is less than 65%. For the same compound, in assay [2], the “M4 Activity” value was “x (activity was measured to be greater than 1.0 μM)” and the Emax is less than 65%.

As to `Clc1ccc2c(c1)C1(CCN(C3CCCCCC3)CC1)CN2` [compound 333], in assay [1], the “M1 Activity” value is “x (activity was measured to be greater than 1.0 μM)” and the Emax is less than 65%. In addition, in assay [2], the “M4 Activity” value is “x (activity was measured to be greater than 1.0 μM)” and the Emax was less than 65%.

In the case of `CCCC1CCC(N2CCC3(CC2)CNc2ccccc23)CC1` (stereo not drawn) [compound 334], in assay [1], the “M1 Activity” value is on record as “x (activity was measured to be greater than 1.0 μM)” and the Emax is less than 65%. In addition, in assay [2], the “M4 Activity” value is recorded as “x (activity was measured to be greater than 1.0 μM)” and the Emax was less than 65%.

Turning to `CCOC(=O)N1CCC(N2CCC3(CC2)CN(C(=O)c2cc(C)oc2C)c2ccc(F)cc23)CC1` [compound 335], in assay [1], the “M1 Activity” value is “x (activity was measured to be greater than 1.0 μM)” and the Emax is less than 65%. In assay [2], the “M4 Activity” value was “x (activity was measured to be greater than 1.0 μM)” and the Emax was less than 65%.

`O=C(O[C@@H]1CCOC1)N1C2CCC1CC(N1CCC3(CC1)C(=O)Nc1ccccc13)C2` (stereo partly drawn) [compound 336]: in assay [1], the “M1 Activity” value was “x (activity was measured to be greater than 1.0 μM)” and the Emax is less than 65%. In assay [2], the “M4 Activity” value was “x (activity was measured to be greater than 1.0 μM)” and the Emax was less than 65%.

Regarding `CC(=O)N[C@H]1CC2(CCN(C3CC4CCC(C4)C3)CC2)c2ccccc21` (stereo partly drawn) [compound 337], in assay [1], the “M1 Activity” value was “x (activity was measured to be greater than 1.0 μM)” and the Emax was less than 65%. In assay [2], the “M4 Activity” value was “x (activity was measured to be greater than 1.0 μM)” and the Emax is less than 65%.

With `O=C(O[C@@H]1CCOC1)N1C2CCC1CC(N1CCC3(CC1)COc1ccc(F)cc13)C2` (stereo partly drawn) [compound 338], in assay [1], the “M1 Activity” value is recorded as “x (activity was measured to be greater than 1.0 μM)” and the Emax is less than 65%. In assay [2], the “M4 Activity” value is “x (activity was measured to be greater than 1.0 μM)” and the Emax was less than 65%.

As to `CC(=O)N(C)[C@@H]1CC2(CCN(C[C@H]3C[C@H]4CC[C@H]3C4)CC2)c2ccccc21` [compound 339], in assay [1], the “M1 Activity” value is “x (activity was measured to be greater than 1.0 μM)” and the Emax is less than 65%. Besides, in assay [2], the “M4 Activity” value is recorded as “x (activity was measured to be greater than 1.0 μM)” and the Emax was less than 65%.

In the case of `CCOC(=O)N1CCC(N2CCC3(CC2)CN(C(C)=O)c2ccc(OC)cc23)CC1` [compound 340], in assay [1], the “M1 Activity” value is “xx (activity was measured to be between 0.1 μM and 1.0 μM)”; the Emax is less than 65%. In assay [2], the “M4 Activity” value is reported as “x (activity was measured to be greater than 1.0 μM)” and the Emax is less than 65%.

`CCCC1CCC(N2CCC3(CC2)CNc2ccc(Cl)cc23)CC1` (stereo not drawn) [compound 341]: in assay [1], the “M1 Activity” value is recorded as “x (activity was measured to be greater than 1.0 μM)” and the Emax was less than 65%. Besides, in assay [2], the “M4 Activity” value is reported as “x (activity was measured to be greater than 1.0 μM)” and the Emax is less than 65%.

Consider `c1ccc2c(c1)NCC21CCN(CC2CCCCC2)CC1` [compound 342], for which, in assay [1], the “M1 Activity” value is listed as “xxx (activity was measured to be less than 0.1 μM)” and the Emax is 65 to 85%. In addition, in assay [2], the “M4 Activity” value was “xx (activity was measured to be between 0.1 μM and 1.0 μM)”; the Emax lay within 65 to 85%.

For `CC(=O)N1CC2(CCN(C3CCCC3)CC2)c2cc(F)ccc21` [compound 343], in assay [1], the “M1 Activity” value is given as “xxx (activity was measured to be less than 0.1 μM)” and the Emax was 65 to 85%. In addition, in assay [2], the “M4 Activity” value was “xxx (activity was measured to be less than 0.1 μM)” and the Emax is less than 65%.

`CCOC(=O)N1C2CCC1CC(N1CCC3(CC1)CN(C(=O)O[C@@H]1CCOC1)c1ccc(F)cc13)C2` (stereo partly drawn) [compound 344]: in assay [1], the “M1 Activity” value is on record as “xxx (activity was measured to be less than 0.1 μM)”; the “M1 Efficacy” value is “xx (efficacy was calculated to be between 85% and 65%)”. For the same compound, in assay [2], the “M4 Activity” value is “xx (activity was measured to be between 0.1 μM and 1.0 μM)”; the “M4 Efficacy” value was “x (efficacy was calculated to be less than 65%)”.

Turning to `CC(C)OC(=O)N1C2CCC1CC(N1CCC3(CC1)CN(C(=O)C1CC1)c1ccc(F)cc13)C2` (stereo not drawn) [compound 345], in assay [1], the “M1 Activity” value is “xxx (activity was measured to be less than 0.1 μM)” and the Emax is less than 65%. In assay [2], the “M4 Activity” value was “xx (activity was measured to be between 0.1 μM and 1.0 μM)”; the Emax is less than 65%.

For `CC#CCOC(=O)N1CC2(CCN(C3CCN(C(=O)OCC)CC3)CC2)c2cc(F)ccc21` [compound 346], in assay [1], the “M1 Activity” value is on record as “xxx (activity was measured to be less than 0.1 μM)” and the Emax is less than 65%. In assay [2], the “M4 Activity” value is “x (activity was measured to be greater than 1.0 μM)” and the Emax is less than 65%.

Take `CCOC(=O)N(C)[C@H]1CC2(CCN(C[C@H]3C[C@H]4CC[C@H]3C4)CC2)c2ccccc21` [compound 347]: in assay [1], the “M1 Activity” value is recorded as “xxx (activity was measured to be less than 0.1 μM)” and the Emax lay in the range of 65 to 85%. Moreover, in assay [2], the “M4 Activity” value is “xx (activity was measured to be between 0.1 μM and 1.0 μM)”; the Emax was more than 85%.

For `Clc1ccc2c(c1)C1(CCN(C3CCC4CCC3C4)CC1)CN2` (stereo not drawn) [compound 348], in assay [1], the “M1 Activity” value is “xxx (activity was measured to be less than 0.1 μM)” and the Emax was more than 85%. Moreover, in assay [2], the “M4 Activity” value was “xx (activity was measured to be between 0.1 μM and 1.0 μM)”; the Emax is more than 85%.

For `Cc1ccc2c(c1)C1(CCN(C3CC4CCC3C4)CC1)CN2` (stereo not drawn) [compound 350], in assay [1], the “M1 Activity” value is on record as “xxx (activity was measured to be less than 0.1 μM)” and the Emax is more than 85%. In assay [2], the “M4 Activity” value is listed as “xxx (activity was measured to be less than 0.1 μM)” and the Emax is more than 85%.

For `CCOC(=O)N1C2CCC1CC(N1CCC3(CC1)CNc1ccc(Cl)cc13)C2` (stereo not drawn) [compound 351], in assay [1], the “M1 Activity” value is recorded as “xxx (activity was measured to be less than 0.1 μM)” and the Emax lay in the range of 65 to 85%. In assay [2], the “M4 Activity” value was “xx (activity was measured to be between 0.1 μM and 1.0 μM)”; the Emax was more than 85%.

Consider `CCOC(=O)N1CCC(N2CCC3(CC2)CNc2ccccc23)CC1` [compound 352], for which, in assay [1], the “M1 Activity” value is listed as “xxx (activity was measured to be less than 0.1 μM)” and the Emax was more than 85%. Also, in assay [2], the “M4 Activity” value was “x (activity was measured to be greater than 1.0 μM)” and the Emax was more than 85%.

As for `CC#CCOC(=O)N1CCC(N2CCC3(CC2)CN(C(=O)N(C)C)c2ccc(F)cc23)CC1` [compound 353], in assay [1], the “M1 Activity” value is “xxx (activity was measured to be less than 0.1 μM)” and the Emax is more than 85%. Moreover, in assay [2], the “M4 Activity” value is reported as “x (activity was measured to be greater than 1.0 μM)” and the Emax lay in the range of 65 to 85%.

`Cc1ccc2c(c1)C1(CCN(C3CC4CCC3C4)CC1)CN2S(=O)(=O)c1ccccc1` (stereo not drawn) [compound 354]: in assay [1], the “M1 Activity” value is “x (activity was measured to be greater than 1.0 μM)” and the Emax was 65 to 85%. Moreover, in assay [2], the “M4 Activity” value is recorded as “x (activity was measured to be greater than 1.0 μM)” and the Emax was in the range of 65 to 85%.

Take `O=C(O[C@H]1CCOC1)N1C2CCC1CC(N1CCC3(CCc4ccccc43)CC1)C2` (stereo partly drawn) [compound 355]: in assay [1], the “M1 Activity” value is “xx (activity was measured to be between 0.1 μM and 1.0 μM)”; the Emax lay within 65 to 85%. Moreover, in assay [2], the “M4 Activity” value is “xx (activity was measured to be between 0.1 μM and 1.0 μM)”; the Emax was in the range of 65 to 85%.
